# From patent US8697694B2, “Substituted pyridine and pyrimidine derivatives and their use in treating viral infections” (priority 2008, dated 2014)
# Tested on: HCV replicon cells
# Assay: Cell-based HCV replicon assay (replicon RNA level by real time PCR, Taqman)
# Conditions: Hepatitis C virus, 72 h, HCV replicon cells, harvested day 3, replicon RNA by real time PCR; given as number; read-out: EC90 (μM) range
# Outline: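 HCV replicon cells treated 3 days with 10 serial 2-fold compound dilutions (top 25 μM to 1 μM; 0.5% DMSO, 10% FBS). Replicon RNA quantified by multiplex Taqman RT-PCR (NS5B amplicon, GAPDH control); EC50 and EC90 = concentrations giving ΔCT of 1 and 3.2 over baseline.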
row,Structure (SMILES),EC90
1,COCCNc1nc(C)c(-c2cc3cc(OCC(C)(C)C)nc(C)c3o2)c(N[C@@H]2C[C@H](CO)[C@@H](O)[C@H]2O)n1 [Example 49],> 25 µM
2,Cc1nc(NCC2CC2)nc(N[C@@H]2C[C@H](CO)[C@@H](O)[C@H]2O)c1-c1cc2cc(OC(C)C)nc(C)c2o1 [Example 39],0.1 µM
3,COc1cc(CNc2nc(C)c(-c3cc4cc(OCC5CC5)ncc4o3)c(N[C@@H]3C[C@H](CO)[C@@H](O)[C@H]3O)n2)cc(OC)c1 [Example 56],0.06 µM

# Same assay, conditions: Hepatitis C virus, 72 h, HCV replicon cells, harvested day 3, replicon RNA by real time PCR; reported as range class; read-out: EC90 (μM) range
row,Structure (SMILES),EC90
1,Cc1nc(NCCO)nc(N[C@@H]2C[C@H](CO)[C@@H](O)[C@H]2O)c1-c1nc2ccccc2s1 [Example 210],< 0.5 µM
2,Nc1nc(Cl)c(-c2cc3cnccc3o2)c(N[C@@H]2C[C@H](CO)[C@@H](O)[C@H]2O)n1 [Example 8],0.5 to 5 µM
3,OC[C@H]1C[C@@H](Nc2nc(NCCCC(F)(F)F)nc(Cl)c2-c2nc3ccccc3s2)[C@H](O)[C@@H]1O [Example 224],< 0.5 µM
4,COCCN(C)c1nc(Cl)c(-c2nc3ccccc3s2)c(N[C@@H]2C[C@H](CO)[C@@H](O)[C@H]2O)n1 [Example 202],0.5 to 5 µM
5,Cc1nc(N)nc(N[C@@H]2C[C@H](CO)[C@@H](O)[C@H]2O)c1-c1nc2ccccc2s1 [Example 119],< 0.5 µM
6,COC[C@H]1C[C@@H](Nc2nc(N(C)C)nc(Cl)c2-c2nc3ccccc3s2)[C@@H]2OC(C)(C)O[C@H]12 [Example 120],> 5 µM
7,NC(=O)c1ccc2oc(-c3c(Cl)nc(N)nc3N[C@@H]3C[C@H](CO)[C@@H](O)[C@H]3O)cc2c1 [Example 173],> 5 µM
8,CCCOCCNc1nc(Cl)c(-c2nc3ccccc3s2)c(N[C@@H]2C[C@H](CO)[C@@H](O)[C@H]2O)n1 [Example 226],< 0.5 µM
9,Nc1nc(Cl)c(-c2cc3cc(-c4nc5ccccc5o4)ccc3o2)c(N[C@@H]2C[C@H](CO)[C@@H](O)[C@H]2O)n1 [Example 180],> 5 µM
10,Nc1nc(Cl)c(-c2cc3cc(Cl)ccc3o2)c(N[C@@H]2C[C@H](CO)[C@@H](O)[C@H]2O)n1 [Example 165],> 5 µM
11,CCc1nc(N(C)C)nc(N[C@@H]2C[C@H](CO)[C@@H](O)[C@H]2O)c1-c1nc2ccccc2s1 [Example 314],> 5 µM
12,Nc1nc(Cl)c(-c2nc3c(F)cc(F)cc3s2)c(N[C@@H]2C[C@H](CO)[C@@H](O)[C@H]2O)n1 [Example 189],0.5 to 5 µM

# Same assay, conditions: Hepatitis C virus, 72 h, HCV replicon cells, harvested on day 3, replicon RNA by real time PCR; calculated EC90 reported as range class; read-out: EC90 (μM) range
row,Structure (SMILES),EC90
1,CCc1cc2cc(-c3c(C)nc(NCc4ccccn4)nc3N[C@@H]3C[C@H](CO)[C@H]4OC(C)(C)O[C@H]43)oc2cn1 [Example 343],> 5 µM
2,CC(=O)N1CCC(Nc2nc(Cl)c(-c3nc4ccccc4s3)c(N[C@@H]3C[C@H](CO)[C@@H](O)[C@H]3O)n2)CC1 [Example 507],< 0.5 µM
3,CN(C)c1nc(Cl)c(-c2cc3ccncc3o2)c(N[C@@H]2C[C@H](CO)[C@@H](O)[C@H]2O)n1 [Example 522],0.5 to 5 µM
4,Cc1nc(NCCNC(=O)NC(C)(C)C)nc(N[C@@H]2C[C@H](CO)[C@H]3OC(C)(C)O[C@H]32)c1-c1nc2ccccc2s1 [Example 249],> 5 µM
5,CCc1cc2cc(-c3c(Cl)nc(NCCC(F)(F)F)nc3N[C@@H]3C[C@H](CO)[C@@H](O)[C@H]3O)oc2cn1 [Example 520],< 0.5 µM
6,CCCCCNc1nc(Cl)c(-c2nc3ccccc3s2)c(N[C@@H]2C[C@H](CO)[C@@H](O)[C@H]2O)n1 [Example 433],< 0.5 µM
7,Cc1nc(NCc2cc3ccccc3s2)nc(N[C@@H]2C[C@H](CO)[C@@H](O)[C@H]2O)c1-c1nc2ccccc2s1 [Example 478],< 0.5 µM
8,CCc1cc2cc(-c3c(Cl)nc(NC(C)C)nc3N[C@@H]3C[C@H](CO)[C@@H](O)[C@H]3O)oc2cn1 [Example 502],< 0.5 µM
9,CCc1cc2cc(-c3c(C)nc(NCc4cc(C)on4)nc3N[C@@H]3C[C@H](CO)[C@@H](O)[C@H]3O)oc2cn1 [Example 703],< 0.5 µM
10,CCc1cc2cc(-c3c(C)nc(NCc4cc(C)on4)nc3N[C@@H]3C[C@H](CO)[C@H]4OC(C)(C)O[C@H]43)oc2cn1 [Example 702],< 0.5 µM
11,Cc1cc(CNc2nc(C)c(-c3nc4ccccc4s3)c(N[C@@H]3C[C@H](CO)[C@H]4OC(C)(C)O[C@H]43)n2)no1 [Example 491],0.5 to 5 µM
12,OC[C@H]1C[C@@H](Nc2nc(NCC3CC3)nc(Cl)c2-c2nc3ccccc3s2)[C@H](O)[C@@H]1O [Example 504],< 0.5 µM
13,Cc1nc(NCc2ccc(C(F)(F)F)cc2)nc(N[C@@H]2C[C@H](CO)[C@H]3OC(C)(C)O[C@H]32)c1-c1nc2ccccc2s1 [Example 241],0.5 to 5 µM

# Same assay, conditions: Hepatitis C virus, 72 h, HCV replicon cells, replicon RNA level by real time PCR (Taqman), day 3; calculated EC90; read-out: EC90 (μM) range
row,Structure (SMILES),EC90
1,Cc1nc(NCC(F)(F)F)nc(N[C@@H]2C[C@H](CO)[C@@H](O)[C@H]2O)c1-c1nc2ncccc2o1 [Example 2008],0.5 to 5 µM
2,COc1cc(CCNc2nc(C)c(-c3nc4cnccc4s3)c(N[C@@H]3C[C@H](CO)[C@@H](O)[C@H]3O)n2)cc(OC)c1 [Example 2010],< 0.5 µM
3,Cc1nc(NCC(O)c2ccccc2)nc(N[C@@H]2C[C@H](CO)[C@@H](O)[C@H]2O)c1-c1nc2ccccc2s1 (stereo partly shown) [Example 1919],0.5 to 5 µM

# Same assay, conditions: Hepatitis C virus, 72 h, HCV replicon cells, replicon RNA level by real time PCR (Taqman), harvested on day 3; calculated EC90 reported as range class; read-out: EC90 (μM) range
row,Structure (SMILES),EC90
1,COCCNC[C@H]1C[C@@H](Nc2nc(NCC(F)(F)F)nc(C)c2-c2nc3ccccc3s2)[C@H](O)[C@@H]1O [Example 1069],0.5 to 5 µM
2,COc1ccc(CNc2nc(C)c(-c3nc4ccccc4s3)c(N[C@@H]3CC[C@@H](O)[C@H]3O)n2)cc1OC [Example 1205],0.5 to 5 µM
3,COc1cc(Nc2nc(C)c(-c3nc4ccccc4s3)c(N[C@@H]3C[C@H](CO)[C@@H](O)[C@H]3O)n2)cc(OC)c1 [Example 1230],> 5 µM
4,CCc1nccc2sc(-c3c(C)nc(N[C@H](C)c4ccc(C)cc4)nc3N[C@@H]3C[C@H](CO)[C@@H](O)[C@H]3O)nc12 [Example 1335],< 0.5 µM
5,COc1cc(CNc2nc(C)c(-c3nc4ccccc4s3)c(N[C@@H]3CC[C@@H](O)[C@H]3O)n2)cc(OC)c1 [Example 1206],0.5 to 5 µM
6,Cc1nc(NCC(C)(C)C)nc(N[C@@H]2C[C@H](CO)[C@H]3OC(C)(C)O[C@H]32)c1-c1cc2cc(C(C)(C)C)ncc2o1 [Example 1103],> 5 µM
7,Cc1nc(NCC(F)(F)F)nc(N[C@@H]2C[C@H](CO)[C@@H](O)[C@H]2O)c1-c1cc2cc(OCC(C)C)nc(C)c2o1 [Example 1055],0.5 to 5 µM
8,CCOCCNc1nc(C)c(-c2nc3ccccc3s2)c(N[C@@H]2C[C@H](C(F)F)[C@@H](O)[C@H]2O)n1 [Example 1019],< 0.5 µM
9,Cc1nc(Nc2ccc(F)cc2)nc(N[C@@H]2C[C@H](CO)[C@@H](O)[C@H]2O)c1-c1nc2ccccc2s1 [Example 1044],0.5 to 5 µM
10,CCCCCCNc1nc(C)c(-c2nc3ccccc3s2)c(N[C@@H]2C[C@H](CO)[C@H]3OC(C)(C)O[C@H]32)n1 [Example 1117],> 5 µM
11,Cc1ccc2nc(-c3c(C)nc(NCC(F)(F)F)nc3N[C@@H]3C[C@H](CO)[C@@H](O)[C@H]3O)sc2c1 [Example 1063],0.5 to 5 µM
12,Cc1nc(NCC(F)(F)F)nc(N[C@@H]2C[C@H](CN3CCOCC3)[C@@H](O)[C@H]2O)c1-c1nc2ccccc2s1 [Example 1015],0.5 to 5 µM
13,OC[C@H]1C[C@@H](Nc2nc(NCC(F)(F)F)ncc2-c2nc3ccccc3s2)[C@H](O)[C@@H]1O [Example 1058],0.5 to 5 µM
14,Cc1cccc(CNc2nc(C)c(-c3nc4ccccc4s3)c(N[C@@H]3C[C@H](CO)[C@@H](O)[C@H]3O)n2)n1 [Example 1208],0.5 to 5 µM
15,COc1ccc2sc(-c3c(C)nc(NCC(F)(F)F)nc3N[C@@H]3C[C@H](CO)[C@@H](O)[C@H]3O)nc2c1 [Example 1010],0.5 to 5 µM

# Same assay, conditions: Hepatitis C virus, 72 h, HCV replicon cells, replicon RNA level by real time PCR, harvested day 3; read-out: EC90 (μM) range
row,Structure (SMILES),EC90
1,Cc1ccc([C@@H](C)Nc2nc(C)c(-c3nc4cnccc4s3)c(N[C@@H]3C[C@H](CO)[C@@H](O)[C@@]3(C)O)n2)cc1 [Example 1708],< 0.5 µM
2,Cc1nc(NC2CC2)nc(N[C@@H]2CC[C@@H](O)[C@@]2(C)O)c1-c1nc2cnccc2s1 [Example 1820],0.5 to 5 µM
3,COc1ccc(CCNc2nc(C)c(-c3nc4cnccc4s3)c(N[C@@H]3C[C@H](CO)[C@@H](O)[C@H]3O)n2)cc1Cl [Example 1913],0.5 to 5 µM
4,Cc1nc(NCc2cccs2)nc(N[C@@H]2C[C@H](CO)[C@@H](O)[C@H]2O)c1-c1cc2ccccc2s1 [Example 1602],> 5 µM
5,Cc1nc(N(C)CC(F)(F)F)nc(N[C@@H]2C[C@H](CN(C)S(C)(=O)=O)[C@@H](O)[C@H]2O)c1-c1nc2ccccc2s1 [Example 1378],> 5 µM
6,Cc1nc(NCC(F)(F)F)nc(N[C@@H]2C[C@H](CNS(=O)(=O)C3CC3)[C@@H](O)[C@H]2O)c1-c1nc2ccccc2s1 [Example 1513],0.5 to 5 µM
7,Cc1nc(N[C@H](C)c2ccc(OC(F)(F)F)cc2)nc(N[C@@H]2C[C@H](C(C)O)[C@@H](O)[C@H]2O)c1-c1nc2cnccc2s1 (stereo partly shown) [Example 1649],< 0.5 µM
8,Cc1nc(N[C@H](C)C2CC2)nc(N[C@@H]2CC[C@@H](O)[C@@]2(C)O)c1-c1nc2cnccc2s1 [Example 1811],< 0.5 µM
9,Cc1nc(NS(C)(=O)=O)nc(N[C@@H]2C[C@H](CO)[C@@H](O)[C@H]2O)c1-c1nc2ccccc2s1 [Example 1917],> 5 µM
10,Cc1nc(N)nc(N[C@@H]2C[C@H](COS(C)(=O)=O)[C@@H](O)[C@H]2O)c1-c1nc2ccccc2s1 [Example 1905],0.5 to 5 µM
11,COC(=O)NC[C@H]1C[C@@H](Nc2nc(NCC(F)(F)F)nc(C)c2-c2nc3ccccc3s2)[C@H](O)[C@@H]1O [Example 1522],0.5 to 5 µM
12,Cc1nc(N[C@H](C)c2ccc(OC(F)F)cc2)nc(N[C@@H]2C[C@H](CO)[C@@H](O)[C@H]2O)c1-c1nc2c(C)nccc2s1 [Example 1545],< 0.5 µM
